Measurements published in the supplement of paper PMC8741786.
Converted amounts (≈) assume the structure as drawn.

How the values were obtained:
Test in all cases: minimum inhibitory concentration (ETEST)
[1] = system: Neisseria mucosa/macacae
Experimental: (§1)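 Oropharyngeal Neisseria isolates from MSM and employees in Belgium were identified to species by MALDI-TOF MS. MICs of azithromycin, ceftriaxone and ciprofloxacin were determined by ETEST on GC agar after 24 h at 36.5 °C and 5-7% CO2, in mg/L. Values beyond the strip range are reported as >256 (azithromycin) or <0.016 (ceftriaxone); isolates that did not grow are NA.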

[2] = system: Neisseria meningitidis
Experimental: as §1

[3] = system: Neisseria lactamica; conditions: population: general population, antibiotic use in previous 6 months: No
Experimental: as §1

[4] = system: Neisseria bacilliformis; conditions: isolate id (sample isolate): Co000780_5; population: general population; antibiotic use in previous 6 months: No
Experimental: as §1

CO/N=C(\C(=O)N[C@@H]1C(=O)N2C(C(=O)O)=C(CSc3nc(=O)c(O)nn3C)CS[C@H]12)c1csc(N)n1 [ceftriaxone]
Conditions | minimum inhibitory concentration [mg/L]
[1], isolate id (sample isolate): 19041762_2, population: MSM, antibiotic use in previous 6 months: Yes | 0.032 (≈ 0.0577 µM)
[1], isolate id (sample isolate): 19051904_1, population: MSM, antibiotic use in previous 6 months: Yes | 0.047 (≈ 0.0847 µM)
[1], isolate id (sample isolate): 19052394_2, population: MSM, antibiotic use in previous 6 months: Yes | 0.032 (≈ 0.0577 µM)
[1], isolate id (sample isolate): 19062968_1, population: MSM, antibiotic use in previous 6 months: Yes | 0.064 (≈ 0.115 µM)
[1], isolate id (sample isolate): 19081774_2, population: MSM, antibiotic use in previous 6 months: No | 0.094 (≈ 0.169 µM)
[1], isolate id (sample isolate): 19111422_4, population: MSM, antibiotic use in previous 6 months: No | 0.032 (≈ 0.0577 µM)
[1], isolate id (sample isolate): 19111422_7, population: MSM, antibiotic use in previous 6 months: No | 0.032 (≈ 0.0577 µM)
[1], isolate id (sample isolate): Co000770_5, population: general population, antibiotic use in previous 6 months: No | 0.047 (≈ 0.0847 µM)
[1], isolate id (sample isolate): Co000771_4, population: general population, antibiotic use in previous 6 months: No | 0.064 (≈ 0.115 µM)
[1], isolate id (sample isolate): Co000772_3, population: general population, antibiotic use in previous 6 months: No | 0.032 (≈ 0.0577 µM)
[1], isolate id (sample isolate): Co000773_3, population: general population, antibiotic use in previous 6 months: No | 0.032 (≈ 0.0577 µM)
[1], isolate id (sample isolate): Co000779_1, population: general population, antibiotic use in previous 6 months: No | 0.125 (≈ 0.225 µM)
[1], isolate id (sample isolate): Co000783_3, population: general population, antibiotic use in previous 6 months: No | 0.032 (≈ 0.0577 µM)
[1], isolate id (sample isolate): Co000783_6, population: general population, antibiotic use in previous 6 months: No | 0.032 (≈ 0.0577 µM)
[1], isolate id (sample isolate): Co000787_3, population: general population, antibiotic use in previous 6 months: No | 0.094 (≈ 0.169 µM)
[1], isolate id (sample isolate): Co000788_1, population: general population, antibiotic use in previous 6 months: No | 0.032 (≈ 0.0577 µM)
[1], isolate id (sample isolate): Co000788_4, population: general population, antibiotic use in previous 6 months: No | 0.032 (≈ 0.0577 µM)
[2], isolate id (sample isolate): 19040471_1, population: MSM, antibiotic use in previous 6 months: No | < 0.016
[2], isolate id (sample isolate): 19040855_1, population: MSM, antibiotic use in previous 6 months: No | < 0.016
[2], isolate id (sample isolate): 19040874_2, population: MSM, antibiotic use in previous 6 months: No | 0.016 (≈ 0.0289 µM)
[2], isolate id (sample isolate): 19040900_2, population: MSM, antibiotic use in previous 6 months: No | 0.023 (≈ 0.0415 µM)
[2], isolate id (sample isolate): 19042150_2, population: MSM, antibiotic use in previous 6 months: Yes | < 0.016
[2], isolate id (sample isolate): 19042756_3, population: MSM, antibiotic use in previous 6 months: Yes | < 0.016
[2], isolate id (sample isolate): 19043201_1, population: MSM, antibiotic use in previous 6 months: No | < 0.016
[2], isolate id (sample isolate): 19043201_2, population: MSM, antibiotic use in previous 6 months: No | < 0.016
[2], isolate id (sample isolate): 19043274_1, population: MSM, antibiotic use in previous 6 months: Yes | < 0.016
[2], isolate id (sample isolate): 19043274_2, population: MSM, antibiotic use in previous 6 months: Yes | 0.016 (≈ 0.0289 µM)
[2], isolate id (sample isolate): 19051853_1, population: MSM, antibiotic use in previous 6 months: No | < 0.016
[2], isolate id (sample isolate): 19052394_3, population: MSM, antibiotic use in previous 6 months: Yes | < 0.016
[2], isolate id (sample isolate): 19052434_1, population: MSM, antibiotic use in previous 6 months: Yes | < 0.016
[2], isolate id (sample isolate): 19060069_1, population: MSM, antibiotic use in previous 6 months: Yes | 0.064 (≈ 0.115 µM)
[2], isolate id (sample isolate): 19060069_2, population: MSM, antibiotic use in previous 6 months: Yes | 0.064 (≈ 0.115 µM)
[2], isolate id (sample isolate): 19060089_2, population: MSM, antibiotic use in previous 6 months: Yes | < 0.016
[2], isolate id (sample isolate): 19061666_1, population: MSM, antibiotic use in previous 6 months: Yes | 1 (≈ 1.8 µM)
[2], isolate id (sample isolate): 19062990_1, population: MSM, antibiotic use in previous 6 months: Yes | < 0.016
[2], isolate id (sample isolate): 19070019_2, population: MSM, antibiotic use in previous 6 months: No | 0.047 (≈ 0.0847 µM)
[2], isolate id (sample isolate): 19070019_4, population: MSM, antibiotic use in previous 6 months: No | 0.064 (≈ 0.115 µM)
[2], isolate id (sample isolate): 19070047_1, population: MSM, antibiotic use in previous 6 months: No | < 0.016
[2], isolate id (sample isolate): 19082621_2, population: MSM, antibiotic use in previous 6 months: No | < 0.016
[2], isolate id (sample isolate): 19091461_1, population: MSM, antibiotic use in previous 6 months: No | < 0.016
[2], isolate id (sample isolate): 19091461_2, population: MSM, antibiotic use in previous 6 months: No | < 0.016
[2], isolate id (sample isolate): 19091973_1, population: MSM, antibiotic use in previous 6 months: No | < 0.016
[2], isolate id (sample isolate): 19092429_3, population: MSM, antibiotic use in previous 6 months: No | < 0.016
[2], isolate id (sample isolate): 19103457_1, population: MSM, antibiotic use in previous 6 months: No | < 0.016
[2], isolate id (sample isolate): 19103457_4, population: MSM, antibiotic use in previous 6 months: No | < 0.016
[2], isolate id (sample isolate): 19110394_1, population: MSM, antibiotic use in previous 6 months: No | < 0.016
[2], isolate id (sample isolate): 19113049_3, population: MSM, antibiotic use in previous 6 months: No | < 0.016
[2], isolate id (sample isolate): 19113049_6, population: MSM, antibiotic use in previous 6 months: No | < 0.016
[2], isolate id (sample isolate): Co000765_1, population: general population, antibiotic use in previous 6 months: No | < 0.016
[2], isolate id (sample isolate): Co000790_1, population: general population, antibiotic use in previous 6 months: No | < 0.016
[2], isolate id (sample isolate): Co000790_3, population: general population, antibiotic use in previous 6 months: No | < 0.016

[3]
Conditions | minimum inhibitory concentration [mg/L]
isolate id (sample isolate): Co000761_1 | < 0.016
isolate id (sample isolate): Co000771_1 | < 0.016

Conditions | minimum inhibitory concentration [mg/L]
[4] | 1.5 (≈ 2.7 µM)
